Source: patent publication US8927533B2, “Thio derivatives bearing lactams as potent HDAC inhibitors and their uses as medicaments” (SIGMA-TAU Industrie Farmaceutiche Riunite S.p.A., priority 2011, dated 2015)

Columns and labels:
[1] = test system: NCI-H460 non-small cell lung carcinoma cells; assay: Cytotoxicity, sulphorodamine B, H460; settings: Homo sapiens, NCI-H460, read-out: H460 cell line IC50 (μM)
Protocol: (§2) The plates were incubated for 24 h at 37° C., after which they were washed 3 times by removal of the supernatant and addition of PBS. The plates were then incubated for further 48 h at 37° C. 200 μl PBS and 50 μl of cold 80% TCA were added and the plates were incubated on ice for at least 1 h. TCA was removed and the plates were washed 3 times by immersion in distilled-water. They were then dried on paper at 40° C. for 5 min. 200 μl of 0.4% sulphorodamine B in 1% acetic acid were added. The plates were incubated at room temperature for further 30 min. Sulphorodamine B was removed, and the plates were washed 3 times by immersion in 1% acetic acid and were dried on paper and at 40° C. for 5 min. Then 200 μl Tris 10 mM were added. The plates were kept under magnetic stirring for 20 min. Cell survival was determined by means of optical density by a Multiskan spectrofluorimeter at 540 nm. The amount of cells killed was calculated as the percentage decrease in sulphorodamine B binding compared to control cultures.

[2] = test system: K562 chronic myeloid leukemia cells; assay: Cytotoxicity extended panel, K562; assay type: cell-based; settings: Homo sapiens, suspension cells, 72 h
Protocol: Cells were seeded in 96-well tissue culture plates at approximately 10% confluence. They were allowed to attach and recover for at least 24 h. Compounds of the present invention were then added to each well at various concentrations in order to define cell survival inhibition IC50. The plates were incubated for 72 h at 37° C., after which time they were washed 3 times by removal of the supernatant. 200 μl of PBS and 50 μl of cold 80% TCA were added and the plates were incubated on ice for at least 1 h. TCA was removed and the plates were washed 3 times by immersion in distilled water. They were then dried on paper at 40° C. for 5 min. 200 μl of 0.4% sulphorodamine B in 1% acetic acid were added. The plates were incubated at room temperature for further 30 min. Sulphorodamine B was removed, and the plates were washed 3 times by immersion in 1% acetic acid and were dried on paper at 40° C. for 5 min. Then 200 μl Tris 10 mM were added. The plates were kept under magnetic stirring for 20 min. Cell survival was determined by means of optical density by a Multiskan spectrofluorimeter at 540 nm. The amount of cells killed was calculated as the percentage decrease in sulphorodamine B binding compared to control cultures. The IC50 values (reported in Table 5) were calculated with the “ALLFIT” program. […]

[3] = test system: HCT116 colon cancer cells; assay: Antitumour activity, HCT116 xenograft (Example 48); assay type: in vivo, CD1 nude mice; settings: 100 mg/10 ml/kg p.o., qd×5/w×3w
Protocol: (§3) The tested derivatives were administered as a suspension in PBS/DMSO/Cremophor EL (Sigma): 85/10/5 (volume percentage). The antitumour activity was determined by measuring tumour diameters with a Vernier calliper according to the Formula TV=d^2×D/2
(§4) where d and D are the shortest and longest diameters, respectively.
(§5) When tumours reached a volume of about 1000 mm^3, mice were sacrificed by cervical dislocation. The efficacy of the drug was assessed as the tumour volume inhibition according to the Formula reported underneath:
(§6) Body weight recording was carried out to evaluate body weight loss as calculated in the equation underneath:
(§7) Wherein BW day x corresponds to the mean weight at day x of the experiment meanwhile BW day 1 corresponds to the mean weight at the first day of the experiment.

[4] = test system: H929 multiple myeloma cells; assay: Antitumour activity, H929 xenograft (Example 48); assay type: in vivo, CD1 nude mice; settings: 100 mg/10 ml/kg i.p., qd×5/w×3w
Protocol: as §3, §4, §5, §6, §7

HCT116 colon cancer = assay: Antitumour activity, HCT116 xenograft, oral (Example 49); assay type: in vivo, mice; settings: 100 mg/10 ml/kg p.o., PEG200/DMSO/Cremophor EL
Text: (§1) The experiment of example 48 was repeated with another compound on mice animal model developing HCT116 colon cancer as described above or A2780 ovarian cancer, and administering the drugs solubilised in orally in PEG200/DMSO/Cremophor EL (Sigma): 85/10/5 (volume percentage).

A2780 ovarian cancer = assay: Antitumour activity, A2780 xenograft, oral (Example 49); assay type: in vivo, mice; settings: 100 mg/10 ml/kg p.o., PEG200/DMSO/Cremophor EL
Text: as §1

NCI-H460 NSCLC = assay: Antitumour activity, NCI-H460 xenograft (Example 48)
Protocol: as §3, §4, §5, §6, §7

[5] = test system: HCT116 colon cancer cells; assay: Cytotoxicity, sulphorodamine B, HCT116; settings: Homo sapiens, HCT-116, read-out: HCT116 cell line IC50 (μM)
Protocol: as §2

[6] = 100 mg/10 ml/kg i.p., qd×5/w×3w

CC(=O)SCCCCC[C@H](NC(=O)[C@@H]1CC=CC(=O)N1)C(=O)Nc1ccccc1 [Example 10, Thioacetic acid S—{(S)-6-[((S)-6-oxo-1,2,3,6-tetrahydro-pyridine-2-carbonyl)-amino]-6-phenylcarbamoyl-hexyl}ester] showed an IC50 [1] of under 0.5 µM.
O=C(CCCCCCC(=O)Nc1ccccc1)NO [SAHA, suberoylanilide hydroxamic acid, reference compound] was tested, and the IC50 [2] was 0.13 µM, the BWL % [3] was 0% and the TVI % [3] was 47%. For the same molecule, the BWL % [4] was 3%, the TVI % [4] was 21% and the BWL % (HCT116 colon cancer) was 1%. It also gave a TVI % (HCT116 colon cancer) of 32%, a BWL % (A2780 ovarian cancer) of 4% and a TVI % (A2780 ovarian cancer) of 53%. For the same molecule, the BWL % (NCI-H460 NSCLC; [6]) was 0% and the TVI % (NCI-H460 NSCLC; [6]) was 27%.
Molecule CC(=O)SCCCCC[C@H](NC(=O)[C@H]1C(=O)NC[C@@H]1c1ccccc1)C(=O)Nc1ccccc1 (relative stereo) [Example 19, Thioacetic acid S—{(S)-6-[((3R*,4S*)-2-oxo-4-phenyl-pyrrolidine-3-carbonyl)-amino]-6-phenylcarbamoyl-hexyl}ester] has an IC50 [1] of under 0.5 µM and an IC50 [5] of under 0.5 µM.
Molecule CC(=O)SCCCCCCC(=O)Nc1ccccc1 [Compound A, Thioacetic acid S-(6-phenylcarbamoyl-hexyl)ester] has a BWL % (HCT116 colon cancer) of 0% and a TVI % (HCT116 colon cancer) of 11%.
In the case of CCOC(=S)OCCCCC[C@H](NC(=O)[C@@H]1CCCC(=O)N1)C(=O)Nc1ccccc1 [Example 41, Thiocarbonic acid ethyl ester {(S)-6-[((S)-6-oxo-piperidine-2-carbonyl)-amino]-6-phenylcarbamoyl-hexyl}ester], the IC50 [1] is reported as 0.5 to 1 µM.
Molecule CC(=O)SCCCCC[C@H](NC(=O)[C@@H]1CCC(=O)N1)C(=O)Nc1ccccc1 [Example 11, Thioacetic acid S—{(S)-6-[((S)-5-oxo-pyrrolidine-2-carbonyl)-amino]-6-phenylcarbamoyl-hexyl}ester] has an IC50 [1] of under 0.5 µM.
Work on CC(=O)SCCCCC[C@H](NC(=O)[C@H]1CCC(=O)N1)C(=O)Nc1cccc(C)c1 [Example 8, Thioacetic acid S—{(S)-6-[((R)-5-oxo-pyrrolidine-2-carbonyl)-amino]-6-m-tolylcarbamoyl-hexyl}ester] yielded an IC50 [1] of under 0.5 µM.
In the case of CC(=O)SCCCCC[C@H](NC(=O)[C@H]1CCC(=O)N1C)C(=O)Nc1cccc(C)c1 [Example 6, Thioacetic acid S—{(S)-6-[((R)-1-methyl-5-oxo-pyrrolidine-2-carbonyl)-amino]-6-m-tolylcarbamoyl-hexyl}ester], the IC50 [1] is reported as under 0.5 µM.
CC(=O)SCCCCC[C@H](NC(=O)[C@H]1CCCC(=O)N1)C(=O)Nc1ccccc1 [Example 13, Thioacetic acid S—{(S)-6-[((R)-6-oxo-piperidine-2-carbonyl)-amino]-6-phenylcarbamoyl-hexyl}ester] showed an IC50 [1] of under 0.5 µM.
Work on CC(=O)SCCCCC[C@H](NC(=O)C1CCCNC1=O)C(=O)Nc1ccccc1 (stereo in doubt) [Example 22, Thioacetic acid S—{(S)-6-[(R*)-(2-oxo-piperidine-3-carbonyl)-amino]-6-phenylcarbamoyl-hexyl}ester] yielded an IC50 [5] of 1 to 10 µM.
CC(=O)SCCCCC[C@H](NC(=O)[C@@H]1CCCC(=O)N1)C(=O)Nc1ccc(C)cc1 [Example 15, Thioacetic acid S—{(S)-6-[((S)-6-oxo-piperidine-2-carbonyl)-amino]-6-p-tolylcarbamoyl-hexyl}ester] was tested, and the IC50 [1] was under 0.5 µM.
In the case of CC(=O)SCCCCC[C@H](NC(=O)[C@H]1C(=O)NC[C@H]1c1ccccc1)C(=O)Nc1ccccc1 (relative stereo) [Example 20, Thioacetic acid S—{(S)-6-[((3R*,4R*)-2-oxo-4-phenyl-pyrrolidine-3-carbonyl)-amino]-6-phenylcarbamoyl-hexyl}ester], the IC50 [5] is reported as 0.5 to 1 µM.
CC(=O)SCCCCC[C@H](NC(=O)[C@@H]1CCCC(=O)N1)C(=O)NCCc1cccc(C)c1 [Example 5, Thioacetic acid S—[(S)-6-[((S)-6-oxo-piperidine-2-carbonyl)-amino]-6-(2-m-tolyl-ethylcarbamoyl)-hexyl]ester] was tested, and the IC50 [1] was 1 to 10 µM.
CC(C)C(=O)SCCCCC[C@H](NC(=O)[C@@H]1CCCC(=O)N1)C(=O)Nc1ccccc1 [Example 43, Thioisobutyric acid S—{(S)-6-[((S)-6-oxo-piperidine-2-carbonyl)-amino]-6-phenylcarbamoyl-hexyl}ester] was tested, and the IC50 [1] was 1 to 10 µM.
N.N.[Cl][Pt][Cl] [Cisplatin] showed a TVI % (NCI-H460 NSCLC; 2 mg/10 ml/kg i.p., q4d/w×3w) of 56%.
For CC(=O)SCCCCC[C@H](NC(=O)[C@H]1CCC(=O)N1)C(=O)Nc1cccc(C(F)(F)F)c1 [Example 18, Thioacetic acid S—[(S)-6-[((R)-5-oxo-pyrrolidine-2-carbonyl)-amino]-6-(3-trifluoromethyl-phenylcarbamoyl)-hexyl]ester], the IC50 [1] was under 0.5 µM.
In the case of CC(=O)SCCCCC[C@H](NC(=O)[C@@H]1CCC(=O)N1)C(=O)Nc1cccc(C)c1 [Example 7, Thioacetic acid S—{(S)-6-[((S)-5-oxo-pyrrolidine-2-carbonyl)-amino]-6-m-tolylcarbamoyl-hexyl}ester], the IC50 [1] is reported as under 0.5 µM.
CC(=O)SCCCCC[C@H](NC(=O)[C@@H]1CCCC(=O)N1)C(=O)Nc1cccc(C)c1 [Example 16, Thioacetic acid S—{(S)-6-[((S)-6-oxo-piperidine-2-carbonyl)-amino]-6-m-tolylcarbamoyl-hexyl}ester] was tested, and the IC50 [1] was under 0.5 µM.
CC(=O)SCCCCC[C@H](NC(=O)[C@@H]1CC(=O)N1)C(=O)Nc1ccccc1 [Example 1, Thioacetic acid S—{(S)-6-[((S)-4-oxo-azetidine-2-carbonyl)-amino]-6-phenylcarbamoyl-hexyl}ester] gave an IC50 [1] of under 0.5 µM.
In the case of CCOC(=S)OCCCCC[C@H](NC(=O)[C@H]1CCC(=O)N1)C(=O)Nc1ccccc1 [Example 42, Thiocarbonic acid ethyl ester {(S)-6-[((R)-5-oxo-pyrrolidine-2-carbonyl)-amino]-6-phenylcarbamoyl-hexyl}ester], the IC50 [1] is reported as under 0.5 µM.
Work on CC(=O)SCCCCC[C@H](NC(=O)[C@@H]1CCCC(=O)N1)C(=O)NC1CCCC1 [Example 17, Thioacetic acid S—{(S)-6-[((S)-6-oxo-piperidine-2-carbonyl)-amino]-6-cyclopentylcarbamoyl-hexyl}ester] yielded an IC50 [5] of 1 to 10 µM.
